In US8173592B1, “Method for a programmed controlled ovarian stimulation protocol” (Zentaris IVF GmbH, priority 1999, dated 2012):
Non-standard residues stand in square brackets, D forms with d. Residues, ends and D or L forms follow the SMILES beside them. dPhe(4-Cl) = N[C@H](Cc1ccc(Cl)cc1)C(=O)O; d2Nal = N[C@H](Cc1ccc2ccccc2c1)C(=O)O; dCit = NC(=O)NCCC[C@@H](N)C(=O)O; d3Pal = N[C@H](Cc1cccnc1)C(=O)O

Columns and labels:
[1] = system: luteal regression / start of menses; details: 1 mg given in the luteal phase; previous use; cited from earlier work
[2] = system: women undergoing controlled ovarian stimulation; assay: Controlled ovarian stimulation (COS) cycles programmed by oral contraceptives, with Gonal-F stimulation and Cetrotide 0.25 mg daily, in patients; format: in vivo
Protocol: A total of 30 patients, 15 from each German study center was enrolled for one treatment cycle. In the pre-treatment cycle, each patient received monophasic oral contraceptive(OC) pills containing 30 μg Estradiol in combination with levonogastrel. […] Cetrotide® 0.25 mg was given daily from the evening of stimulation day (s-day) 5/morning of s-day 6 until the day before hCG administration. On the basis of the ultrasound scans performed on s-day 9/10(s-day 9/10), and a calculation of follicular growth of 2 mm per day, hCG was administered to trigger ovulation (when >2 follicle's≧18 mm) were visualized.
Safety end-points were indicated and severity of adverse events.

[3] = last day of Cetrotide administration, 17 patients

## CC(=O)N[C@H](Cc1ccc2ccccc2c1)C(=O)N[C@H](Cc1ccc(Cl)cc1)C(=O)N[C@H](Cc1cccnc1)C(=O)N[C@@H](CO)C(=O)N[C@@H](Cc1ccc(O)cc1)C(=O)N[C@H](CCCNC(N)=O)C(=O)N[C@@H](CC(C)C)C(=O)N[C@@H](CCCNC(=N)N)C(=O)N1CCC[C@H]1C(=O)N[C@H](C)C(N)=O [Cetrotide, cetrorelix] (Ac-[d2Nal][dPhe(4-Cl)][d3Pal]SY[dCit]LRP[dA]-NH2)
[1]
  start of menses after administration (luteal regression obtained): 2 to 4 days
[2]; 17 patients
  adverse events: no cases of OHSS nor adverse events
  cases of OHSS: no cases
  difference between predicted and actual day of OPU, average: 2 days
  mean number of embryos transferred: 2
  mean number of oocytes retrieved: 8.8
  patients receiving hCG who had ovum pick up and embryo transfer: All 17 women who received hCG had ovum pick up and embryo transfer
  pregnancy rate per attempt/cycle: 41%
[2]; conclusion
  efficacy in OC programmed cycles: appears to be effective
  tolerability in OC programmed cycles: well tolerated
[2]; [3]
  mean number of follicles with diameter 15-17 mm: 4.9
  mean number of follicles with diameter ≦14 mm: 2.7
  mean number of follicles with diameter ≧18 mm: 2.7
[2]; preliminary results from 17 patients, stimulation day 9/10, Cetrotide 0.25 mg daily
  mean number of follicles ≧18 mm on s-day 9/10: 2.2
